# In patent US10239832B2, “N-(1-hydroxy-3-(pyrrolidinyl)propan-2-yl)pyrrolidine-3-carboxamide derivatives as glucosylceramide synthase inhibitors” (BIOMARIN PHARMACEUTICAL INC., priority 2013, dated 2019):
# Target: T1, GCS (Canis lupus familiaris, UniProt A0A8I3MXG6)
# T1 construct: endogenous in cells; host or cells: MDCK (Madin-Darby canine kidney) cells, whole-cell lysate
# T1 sequence (A0A8I3MXG6 1-394): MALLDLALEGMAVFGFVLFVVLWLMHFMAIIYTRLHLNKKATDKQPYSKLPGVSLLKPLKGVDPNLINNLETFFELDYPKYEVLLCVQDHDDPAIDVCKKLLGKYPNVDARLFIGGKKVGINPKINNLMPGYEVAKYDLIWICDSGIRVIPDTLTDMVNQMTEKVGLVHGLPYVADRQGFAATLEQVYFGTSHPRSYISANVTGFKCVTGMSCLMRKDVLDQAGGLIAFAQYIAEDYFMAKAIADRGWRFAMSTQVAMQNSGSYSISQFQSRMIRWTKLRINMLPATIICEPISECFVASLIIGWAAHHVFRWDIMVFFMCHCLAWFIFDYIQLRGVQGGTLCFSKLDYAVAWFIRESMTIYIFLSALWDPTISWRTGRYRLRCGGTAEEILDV
# Test: GCS enzymatic assay (MDCK cell lysate, NBD-ceramide to glucosylceramide, LC/MS)
# Format: biochemical, canine
# Settings: Table 2; class symbols A, B, C; the table does not say which of the assays; read-out: Data Range (IC50 values)
# Procedure, shortened: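 IC50 or percent inhibition came from LC/MS/MS (ESI+, MRM) of NBD-ceramide and glucosylceramide, with tolbutamide as internal standard. The reaction used MDCK (canine) cell lysate as the enzyme source and was ended with acetonitrile. Mock wells received 0.1% DMSO.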
row,SMILES,IC50 [nM]
1,"O=C(N[C@H](CN1CCCC1)[C@H](O)c1ccc(OC2CC2)c(Cl)c1)[C@@H]1CCN(c2ccc(F)cc2)C1 [Compound 96, (R)-N-((1R,2R)-1-(3-chloro-4-cyclopropoxyphenyl)-1-hydroxy-3-(pyrrolidin-1-yl)propan-2-yl)-1-(4-fluorophenyl)pyrrolidine-3-carboxamide]",1 to 30
2,"O=C(N[C@H](CN1CCCC1)[C@H](O)c1cc(F)c2c(c1)OCCO2)[C@@H]1CCN(c2ccc3ccsc3c2)C1 [Compound 97, (R)-1-(benzo[b]thiophen-6-yl)-N-((1R,2R)-1-(8-fluoro-2,3-dihydrobenzo[b][1,4]dioxin-6-yl)-1-hydroxy-3-(pyrrolidin-1-yl)propan-2-yl)pyrrolidine-3-carboxamide]",1 to 30
3,"O=C(N[C@H](CN1CCCC1)[C@H](O)c1ccc2c(c1)OCCO2)[C@@H]1CCN(c2ccc3cc(Cl)ccc3n2)C1 [Compound 99, (R)-1-(6-chloroquinolin-2-yl)-N-((1R,2R)-1-(2,3-dihydrobenzo[b][1,4]dioxin-6-yl)-1-hydroxy-3-(pyrrolidin-1-yl)propan-2-yl)pyrrolidine-3-carboxamide]",1 to 30
4,"O=C(N[C@H](CN1CCCC1)[C@H](O)c1ccc2c(c1)OCCO2)C1CCN(c2ccc3cc(Cl)ccc3n2)C1 (stereo partly drawn) [Compound 99C, 1-(6-chloroquinolin-2-yl)-N-((1R,2R)-1-(2,3-dihydrobenzo[b][1,4]dioxin-6-yl)-1-hydroxy-3-(pyrrolidin-1-yl)propan-2-yl)pyrrolidine-3-carboxamide]",1 to 30
5,"O=C(N[C@H](CN1CCCC1)[C@H](O)c1ccc(OC2CC2)c(Cl)c1)[C@@H]1CCN(c2ccc3cc(Cl)ccc3n2)C1 [Compound 100, (R)-N-((1R,2R)-1-(3-chloro-4-cyclopropoxyphenyl)-1-hydroxy-3-(pyrrolidin-1-yl)propan-2-yl)-1-(6-chloroquinolin-2-yl)pyrrolidine-3-carboxamide]",1 to 30
6,"O=C(N[C@H](CN1CCCC1)[C@H](O)c1ccc(OC2CCOCC2)c(Cl)c1)[C@@H]1CCN(c2ccc3cc(Cl)sc3c2)C1 [Compound 101, (R)-N-((1R,2R)-1-(3-chloro-4-((tetrahydro-2H-pyran-4-yl)oxy)phenyl)-1-hydroxy-3-(pyrrolidin-1-yl)propan-2-yl)-1-(2-chlorobenzo[b]thiophen-6-yl)pyrrolidine-3-carboxamide]",1 to 30
7,"CC(C)(O)COc1ccc([C@@H](O)[C@@H](CN2CCCC2)NC(=O)[C@@H]2CCN(c3ccc4cc(F)ccc4c3)C2)cc1Cl [Compound 102, (R)-N-((1R,2R)-1-(3-chloro-4-(2-hydroxy-2-methylpropoxy)phenyl)-1-hydroxy-3-(pyrrolidin-1-yl)propan-2-yl)-1-(6-fluoronaphthalen-2-yl)pyrrolidine-3-carboxamide]",1 to 30
8,"O=C(N[C@H](CN1CCCC1)[C@H](O)c1ccc(OC2CC2)c(Cl)c1)[C@@H]1CCN(c2ccc(Cl)c(Oc3ccccn3)c2)C1 [Compound 103, (R)-1-(4-chloro-3-(pyridin-2-yloxy)phenyl)-N-((1R,2R)-1-(3-chloro-4-cyclopropoxyphenyl)-1-hydroxy-3-(pyrrolidin-1-yl)propan-2-yl)pyrrolidine-3-carboxamide]",1 to 30

# Second part, the molecule after the results:
row,IC50 [nM],SMILES
1,1 to 30,"O=C(N[C@H](CN1CCCC1)[C@H](O)c1cc(F)c2c(c1)OCCO2)[C@@H]1CCN(c2ccc3cc(Cl)ccc3n2)C1 [Compound 104, (R)-1-(6-chloroquinolin-2-yl)-N-((1R,2R)-1-(8-fluoro-2,3-dihydrobenzo[b][1,4]dioxin-6-yl)-1-hydroxy-3-(pyrrolidin-1-yl)propan-2-yl)pyrrolidine-3-carboxamide]"
2,1 to 30,"O=C(N[C@H](CN1CCCC1)[C@H](O)c1cc(F)c2c(c1)OCCO2)[C@@H]1CCN(c2ccc(Cl)c(Oc3ccccn3)c2)C1 [Compound 105, (R)-1-(4-chloro-3-(pyridin-2-yloxy)phenyl)-N-((1R,2R)-1-(8-fluoro-2,3-dihydrobenzo[b][1,4]dioxin-6-yl)-1-hydroxy-3-(pyrrolidin-1-yl)propan-2-yl)pyrrolidine-3-carboxamide]"
3,1 to 30,"CC(C)(O)COc1ccc([C@@H](O)[C@@H](CN2CCCC2)NC(=O)[C@@H]2CCN(c3ccc4ccccc4c3)C2)cc1Cl [Compound 107, (R)-N-((1R,2R)-1-(3-chloro-4-(2-hydroxy-2-methylpropoxy)phenyl)-1-hydroxy-3-(pyrrolidin-1-yl)propan-2-yl)-1-(naphthalen-2-yl)pyrrolidine-3-carboxamide]"
4,1 to 30,"O=C(N[C@H](CN1CCC1)[C@H](O)c1cc(F)c2c(c1)OCCO2)[C@@H]1CCN(c2ccc3cc(Cl)sc3c2)C1 [Compound 108, (R)-N-((1R,2R)-3-(azetidin-1-yl)-1-(8-fluoro-2,3-dihydrobenzo[b][1,4]dioxin-6-yl)-1-hydroxypropan-2-yl)-1-(2-chlorobenzo[b]thiophen-6-yl)pyrrolidine-3-carboxamide]"
5,30 to 100,"O=C(N[C@H](CN1CCCC1)[C@H](O)c1ccc(OC2CC2)c(Cl)c1)[C@@H]1CCN(c2ccc3cc(Cl)sc3c2)C1 [Compound 109, (R)-N-((1R,2R)-1-(3-chloro-4-cyclopropoxyphenyl)-1-hydroxy-3-(pyrrolidin-1-yl)propan-2-yl)-1-(2-chlorobenzo[b]thiophen-6-yl)pyrrolidine-3-carboxamide]"
6,1 to 30,"O=C(N[C@H](CN1CCCC1)[C@H](O)c1ccc2c(c1)OCCO2)[C@@H]1CCN(c2ccc(Cl)c(Oc3ccccn3)c2)C1 [Compound 110, (R)-1-(4-chloro-3-(pyridin-2-yloxy)phenyl)-N-((1R,2R)-1-(2,3-dihydrobenzo[b][1,4]dioxin-6-yl)-1-hydroxy-3-(pyrrolidin-1-yl)propan-2-yl)pyrrolidine-3-carboxamide]"
7,1 to 30,"O=C(N[C@H](CN1CCCC1)[C@H](O)c1cc(F)c2c(c1)OCCO2)[C@@H]1CCN(c2ccc3cc(Cl)sc3c2)C1 [Compound 111, (R)-1-(2-chlorobenzo[b]thiophen-6-yl)-N-((1R,2R)-1-(8-fluoro-2,3-dihydrobenzo[b][1,4]dioxin-6-yl)-1-hydroxy-3-(pyrrolidin-1-yl)propan-2-yl)pyrrolidine-3-carboxamide]"
8,1 to 30,"O=C(N[C@H](CN1CCCC1)[C@H](O)c1ccc(OC2CC2)c(Cl)c1)[C@@H]1CCN(c2cccc(Oc3ccc(Cl)cc3)n2)C1 [Compound 112, (R)-N-((1R,2R)-1-(3-chloro-4-cyclopropoxyphenyl)-1-hydroxy-3-(pyrrolidin-1-yl)propan-2-yl)-1-(6-(4-chlorophenoxy)pyridin-2-yl)pyrrolidine-3-carboxamide]"
9,1 to 30,"O=C(N[C@H](CN1CCCC1)[C@H](O)c1ccc2c(c1)OCCO2)[C@@H]1CCN(c2cccc(Oc3ccc(Cl)cc3)n2)C1 [Compound 113, (R)-1-(6-(4-chlorophenoxy)pyridin-2-yl)-N((1R,2R)-1-(2,3-dihydrobenzo[b][1,4]dioxin-6-yl)-1-hydroxy-3-(pyrrolidin-1-yl)propan-2-yl)pyrrolidine-3-carboxamide]"

# Same assay, conditions: Table 2; class symbols D, E, F, NA (not active); the table does not say which of the assays
row,Data Range (% inhibition),SMILES
1,E (50-74% (or less than 75%)),"O=C(N[C@H](CN1CCCC1)[C@H](O)c1cc(F)c2c(c1)OCCO2)[C@H]1CCN(c2ccc3ccsc3c2)C1 [Compound 97C, (S)-1-(benzo[b]thiophen-6-yl)-N-((1R,2R)-1-(8-fluoro-2,3-dihydrobenzo[b][1,4]dioxin-6-yl)-1-hydroxy-3-(pyrrolidin-1-yl)propan-2-yl)pyrrolidine-3-carboxamide]"
2,D (75-100%),"O=C(N[C@H](CN1CCCC1)[C@H](O)c1ccc(OC2CC2)c(Cl)c1)[C@@H]1CCN(c2ccc3c(c2)CCCC3)C1 [Compound 98, (R)-N-((1R,2R)-1-(3-chloro-4-cyclopropoxyphenyl)-1-hydroxy-3-(pyrrolidin-1-yl)propan-2-yl)-1-(5,6,7,8-tetrahydronaphthalen-2-yl)pyrrolidine-3-carboxamide]"
3,F (1-49% (or less than 50%)),"O=C(N[C@H](CN1CCCC1)[C@H](O)c1ccc(OC2CC2)c(Cl)c1)[C@H]1CCN(c2ccc3c(c2)CCCC3)C1 [Compound 98A, (S)-N-((1R,2R)-1-(3-chloro-4-cyclopropoxyphenyl)-1-hydroxy-3-(pyrrolidin-1-yl)propan-2-yl)-1-(5,6,7,8-tetrahydronaphthalen-2-yl)pyrrolidine-3-carboxamide]"
4,F (1-49% (or less than 50%)),"O=C(N[C@H](CN1CCCC1)[C@H](O)c1ccc2c(c1)OCCO2)[C@H]1CCN(c2ccc3cc(Cl)ccc3n2)C1 [Compound 99D, (S)-1-(6-chloroquinolin-2-yl)-N-((1R,2R)-1-(2,3-dihydrobenzo[b][1,4]dioxin-6-yl)-1-hydroxy-3-(pyrrolidin-1-yl)propan-2-yl)pyrrolidine-3-carboxamide]"
5,D (75-100%),"O=C(N[C@H](CN1CCCC1)[C@H](O)c1ccc2c(c1)OCCO2)[C@@H]1CCN(c2ccc3cccnc3c2)C1 [Compound 106, (R)-N-((1R,2R)-1-(2,3-dihydrobenzo[b][1,4]dioxin-6-yl)-1-hydroxy-3-(pyrrolidin-1-yl)propan-2-yl)-1-(quinolin-7-yl)pyrrolidine-3-carboxamide]"
